The source of these data is US11040975B2, “Carbocyclic nucleoside reverse transcriptase inhibitors” (Merck Sharp & Dohme Corp., priority 2017, dated 2021).

A value given as a limit tells only on which side of the number the result lay.

In one test the target is T1, HIV-1 RT enzyme (Human immunodeficiency virus type 1 group M subtype B, UniProt P04585).
T1 construct: Full-length wild-type and 2 mutant RT proteins were expressed in Escherichia coli BL21(DE3) cells and purified; made in house; host or cells: Escherichia coli BL21(DE3)
The test is described as follows: RT Polymerase Assay. The test is classed as biochemical.
Settings: not given
From the text: The compounds of Formula I, and pharmaceutically acceptable salts thereof, are HIV reverse transcriptase inhibitors. The compounds are useful for inhibiting HIV reverse transcriptase and for inhibiting HIV replication in vitro and in vivo. More particularly, the compounds of Formula I inhibit the polymerase function of HIV-1 reverse transcriptase. The testing of compounds of the Examples of the invention in the assay set forth in the RT Polymerase Assay below, illustrates the ability of compounds of the invention to inhibit the RNA-dependent DNA polymerase activity of HIV-1 reverse transcriptase. The compounds of Formula I may also be useful agents against HIV-2.
Full-length wild-type and 2 mutant RT proteins were expressed in Escherichia coli BL21(DE3) cells and purified. Briefly, the heterodimeric nucleic acid substrate used in the HIV-1 RT polymerase reactions was generated by annealing biotinylated DNA primer to a 500 nucleotide RNA template. The HIV-1 RT enzyme (final concentration of 50 pM) was combined with an inhibitor compound or DMSO (10% DMSO in the final reaction mixture) in assay buffer (62.5 mM Tris-HCl, pH 7.8, 1.25 mM dithiothreitol, 7.5 mM MgCl2, 100 mM KCl, 0.03% CHAPS, 0.125 mM EGTA). This mixture was pre-incubated for 30 minutes at room temperature in microtiter plates. The polymerization reaction was initiated by the addition of template/primer substrate (final concentration: 16.6 nM) and dNTPs (final concentration: 2 μM dCTP, dGTP, dATP, and 66.6 nM Ru-dUTP). After 90 min of incubation at 37° C., reactions were quenched by the addition of EDTA (25 mM). The resulting mixture was incubated for an additional 5 minutes at room temperature followed by transferring the solution (50 μL) to blocked avidin plate from Meso Scale Discovery (MSD). The mixtures were incubated at room temperature for 60 min prior to the quantification of the reaction product via an ECL 6000 imager instrument.
For orientation: IC50 means the concentration that gives 50% inhibition. Consider `C#CC1(COP(=O)(O)OP(=O)(O)OP(=O)(O)O)CC(n2cnc3c(=O)[nH]c(N)nc32)CC1O` (racemic) [Example (+/−) 47, ((1S,2S,4R)-4-(2-amino-6-oxo-1,6-dihydro-9H-purin-9-yl)-1-ethynyl-2-hydroxycyclopentyl)methyl tetrahydrogen triphosphate and ((1R,2R,4S)-4-(2-amino-6-oxo-1,6-dihydro-9H-purin-9-yl)-1-ethynyl-2-hydroxycyclopentyl)methyl tetrahydrogen triphosphate], for which the IC50 was 324000 pM. For the compound `C#CC1(COP(=O)(O)OP(=O)(O)OP(=O)(O)O)CC(n2cc(C)c(=O)[nH]c2=O)CC1O` (racemic) [Example (+/−) 48, ((1S,2S,4R)-1-ethynyl-2-hydroxy-4-(5-methyl-2,4-dioxo-3,4-dihydropyrimidin-1(2H)-yl)cyclopentyl)methyl tetrahydrogen triphosphate and ((1R,2R,4S)-1-ethynyl-2-hydroxy-4-(5-methyl-2,4-dioxo-3,4-dihydropyrimidin-1(2H)-yl)cyclopentyl)methyl tetrahydrogen triphosphate], the IC50 was found to be 114000 pM. On to `C#CC1(COP(=O)(O)OP(=O)(O)OP(=O)(O)O)CC(n2ccc(N)nc2=O)CC1O` (racemic) [Example (+/−) 49, ((1S,2S,4R)-4-(4-amino-2-oxopyrimidin-1(2H)-yl)-1-ethynyl-2-hydroxycyclopentyl)methyl tetrahydrogen triphosphate and ((1R,2R,4S)-4-(4-amino-2-oxopyrimidin-1(2H)-yl)-1-ethynyl-2-hydroxycyclopentyl)methyl tetrahydrogen triphosphate], for which the IC50 is greater than 1e+08 pM. Same read-out and setting: for `N#CC1(COP(=O)(O)OP(=O)(O)OP(=O)(O)O)CC(n2cnc3c(=O)[nH]c(N)nc32)CC1O` (racemic) [Example (+/−) 75, ((1S,2S,4R)-4-(2-amino-6-oxo-1,6-dihydro-9H-purin-9-yl)-1-cyano-2-hydroxycyclopentyl)methyl tetrahydrogen triphosphate and ((1R,2R,4S)-4-(2-amino-6-oxo-1,6-dihydro-9H-purin-9-yl)-1-cyano-2-hydroxycyclopentyl)methyl tetrahydrogen triphosphate] the value was 444000 pM; for `Cc1cn(C2CC(O)C(C#N)(COP(=O)(O)OP(=O)(O)OP(=O)(O)O)C2)c(=O)[nH]c1=O` (racemic) [Example (+/−) 76, ((1S,2S,4R)-1-cyano-2-hydroxy-4-(5-methyl-2,4-dioxo-3,4-dihydropyrimidin-1(2H)-yl)cyclopentyl)methyl tetrahydrogen triphosphate and ((1R,2R,4S)-1-cyano-2-hydroxy-4-(5-methyl-2,4-dioxo-3,4-dihydropyrimidin-1(2H)-yl)cyclopentyl)methyl tetrahydrogen triphosphate], 523000 pM.

The test is the same for the next values; noted with them: HIV-1 RT 50 pM; 90 min at 37° C.; triphosphates tested; read-out: dNTP IC50.
In the case of “((1S,2S,4R)-4-(2,4-dichloro-7H-pyrrolo[2,3-d]pyrimidin-7-yl)-1-ethynyl-2-hydroxycyclopentyl)methyl tetrahydrogen triphosphate and ((1R,2R,4S)-4-(2,4-dichloro-7H-pyrrolo[2,3-d]pyrimidin-7-yl)-1-ethynyl-2-hydroxycyclopentyl)methyl tetrahydrogen triphosphate [Example (+/−) 45]”, the IC50 worked out at 3.38e+07 pM. With “((1S,2S,4R)-4-(2,6-dichloro-9H-purin-9-yl)-1-ethynyl-2-hydroxycyclopentyl)methyl tetrahydrogen triphosphate and ((1R,2R,4S)-4-(2,6-dichloro-9H-purin-9-yl)-1-ethynyl-2-hydroxycyclopentyl)methyl tetrahydrogen triphosphate [Example (+/−) 43]”, the IC50 was greater than 1e+08 pM. Regarding “((1S,2S,4R)-4-(2-amino-6-chloro-9H-purin-9-yl)-1-ethynyl-2-hydroxycyclopentyl)methyl tetrahydrogen triphosphate and ((1R,2R,4S)-4-(2-amino-6-chloro-9H-purin-9-yl)-1-ethynyl-2-hydroxycyclopentyl)methyl tetrahydrogen triphosphate [Example (+/−) 42]”, the IC50 stood at 1.32e+07 pM. On the same count and under the same terms, next, “((1S,2S,4R)-4-(4-amino-2-chloro-7H-pyrrolo[2,3-d]pyrimidin-7-yl)-1-ethynyl-2-hydroxycyclopentyl)methyl tetrahydrogen triphosphate and ((1R,2R,4S)-4-(4-amino-2-chloro-7H-pyrrolo[2,3-d]pyrimidin-7-yl)-1-ethynyl-2-hydroxycyclopentyl)methyl tetrahydrogen triphosphate [Example (+/−) 46]”: 1.39e+07 pM. “((1S,2S,4R)-4-(6-amino-2-chloro-9H-purin-9-yl)-1-ethynyl-2-hydroxycyclopentyl)methyl tetrahydrogen triphosphate and ((1R,2R,4S)-4-(6-amino-2-chloro-9H-purin-9-yl)-1-ethynyl-2-hydroxycyclopentyl)methyl tetrahydrogen triphosphate [Example (+/−) 44]”: the IC50 came out at 2.02e+07 pM. Same read-out and setting: for “((1S,2S,4R)-4-(6-amino-2-chloro-9H-purin-9-yl)-1-ethynyl-2-hydroxycyclopentyl)methyl tetrahydrogen triphosphate or ((1R,2R,4S)-4-(6-amino-2-chloro-9H-purin-9-yl)-1-ethynyl-2-hydroxycyclopentyl)methyl tetrahydrogen triphosphate [Example 44B]” the value was 9.32e+06 pM.

Another test concerns HIV-1 (H9IIIB virus). The test is described as follows: Viking assay: antiviral potency in a multiple round HIV-1 infection assay (MT4-GFP cells). It counts as cell-based. The following applies: Human immunodeficiency virus 1, MT4-GFP cells, 10% normal human serum; inhibition of reproductive ratio R0; read-out: Viking, IC50 (10% NHS). Here is the method:
Assessing Antiviral Potency in a Multiple Round HIV-1 Infection Assay.
HIV-1 replication was monitored using MT4-gag-GFP clone D3 (hereafter designate MT4-GFP), which are MT-4 cells modified to harbor a GFP reporter gene, the expression of which is dependent on the HIV-1 expressed proteins tat and rev. Productive infection of an MT4-GFP cell with HIV-1 results in GFP expression approximately 24h post-infection.
MT4-GFP cells were maintained at 37° C./5% CO2/90% relative humidity in RPMI 1640 supplemented with 10% fetal bovine serum, 100 U/mL penicillin/streptomycin, and 400 μg/mL G418 to maintain the reporter gene. For infections, MT4-GFP cells were placed in the same medium lacking G418 and infected overnight with H9IIIB virus at an approximate multiplicity of infection of 0.01 in the same incubation conditions. Cells were then washed and re-suspended in either RPMI 1640 containing 10% or 50% normal human serum at 1.6×10^5 cells/mL. Compound plates were prepared by dispensing compounds dissolved in DMSO into wells of 384 well poly D lysine-coated plates ([…]) using an ECHO acoustic dispenser. Each compound was tested in a 10 point serial 3-fold dilution (typical final concentrations: 8.4 μM-0.43 nM). Controls included no inhibitor (DMSO only) and a combination of three antiviral agents (efavirenz, indinavir, and an integrase strand transfer inhibitor at final concentrations of 4 μM each). Cells were added (50 μL/well) to compound plates and the infected cells were maintained at 37° C./5% CO2/90% relative humidity.
Infected cells were quantified at two time points, ˜48h and ˜72h post-infection, by counting the number of green cells in each well using an Acumen eX3 scanner. The increase in the number of green cells over ˜24h period gives the reproductive ratio, R0, which is typically 5-15 and has been shown experimentally to be in logarithmic phase (data not shown). Inhibition of R0 is calculated for each well, and IC50s determined by non-linear 4-parameter curve fitting.
Turning to `C#C[C@]1(CO[P@@](=O)(N[C@@H](C)C(=O)OC(C)C)Oc2ccccc2)C[C@@H](n2cnc3c(OCC)nc(N)nc32)C[C@@H]1O` (single isomer, unassigned) [Example 39B, Isopropyl ((S)-(((1S,2S,4R)-4-(2-amino-6-ethoxy-9H-purin-9-yl)-1-ethynyl-2-hydroxycyclopentyl)methoxy)(phenoxy)phosphoryl)-L-alaninate or Isopropyl ((S)-(((1R,2R,4S)-4-(2-amino-6-ethoxy-9H-purin-9-yl)-1-ethynyl-2-hydroxycyclopentyl)methoxy)(phenoxy)phosphoryl)-L-alaninate], the IC50 was 0.00593 µM. For `N#C[C@]1(CO)C[C@@H](n2cnc3c(N)nc(F)nc32)C[C@@H]1O` (single isomer, unassigned) [Example 73A, (1S,2S,4R)-4-(6-amino-2-fluoro-9H-purin-9-yl)-2-hydroxy-1-(hydroxymethyl)cyclopentane-1-carbonitrile or (1R,2R,4S)-4-(6-amino-2-fluoro-9H-purin-9-yl)-2-hydroxy-1-(hydroxymethyl)cyclopentane-1-carbonitrile], the IC50 was greater than 42 µM. With `N#C[C@@]1(CO)C[C@H](n2cnc3c(N)nc(F)nc32)C[C@H]1O` (single isomer, unassigned) [Example 73B, (1S,2S,4R)-4-(6-amino-2-fluoro-9H-purin-9-yl)-2-hydroxy-1-(hydroxymethyl)cyclopentane-1-carbonitrile or (1R,2R,4S)-4-(6-amino-2-fluoro-9H-purin-9-yl)-2-hydroxy-1-(hydroxymethyl)cyclopentane-1-carbonitrile], the IC50 is 11 µM.
